# Earlier results as cited in patent US20050107350A1, “Method for the treatment or prevention of bone disorders with a cyclooxygenase-2 inhibitor alone and in combination with a bone disorder treatment agent and compositions therewith” (Pharmacia Corporation, priority 2003, published 2005).
# Where a name gives a salt, the structure may show the parent alone.
# What was measured:
# [1] = tested on: osteoporosis patients
# [2] = tested on: osteoporosis patients; settings: human, in vivo
# [3] = tested on: patients; settings: human, in vivo
# [4] = tested on: rats; settings: rat, in vivo
compound,measurement,setting,value
"O=C(c1ccc(OCCN2CCCCC2)cc1)c1c(-c2ccc(O)cc2)sc2cc(O)ccc12 [raloxifene, Methanone, [6-hydroxy-2-(4-hydroxyphenyl)benzo[b]thien-3-yl] - [4-[2-(1-piperidinyl)ethoxy]phenyl]-, hydrochloride]",increase of BMD of the lumbar spine and hip,[1]; over 2-3 years of treatment,2-3%
same,decrease of vertebral fractures,[2],50%
same,common side effects,[3],leg cramps and hot flashes
same,effect on risk of breast cancer,[3],significantly decreases the risk of breast cancer
CC(C)C[C@H](NC(=O)[C@H](CCCCN)NC(=O)CNC(=O)[C@H](CC(C)C)NC(=O)[C@@H](NC(=O)[C@@H]1CSSC[C@H](N)C(=O)N[C@@H](CO)C(=O)N[C@@H](CC(N)=O)C(=O)N[C@@H](CC(C)C)C(=O)N[C@@H](CO)C(=O)N[C@@H]([C@@H](C)O)C(=O)N1)C(C)C)C(=O)N[C@@H](CO)C(=O)N[C@@H](CCC(N)=O)C(=O)N[C@@H](CCC(=O)O)C(=O)N[C@@H](CC(C)C)C(=O)N[C@@H](Cc1c[nH]cn1)C(=O)N[C@@H](CCCCN)C(=O)N[C@@H](CC(C)C)C(=O)N[C@@H](CCC(N)=O)C(=O)N[C@H](C(=O)N[C@@H](Cc1ccc(O)cc1)C(=O)N1CCC[C@H]1C(=O)N[C@@H](CCCNC(=N)N)C(=O)N[C@H](C(=O)N[C@@H](CC(N)=O)C(=O)N[C@H](C(=O)NCC(=O)N[C@@H](CO)C(=O)NCC(=O)N[C@H](C(=O)N1CCC[C@H]1C(N)=O)[C@@H](C)O)[C@@H](C)O)[C@@H](C)O)[C@@H](C)O [calcitonin],improvement of BMD,"[1]; intranasal, after 2 years of treatment",1-2%
same,common side effects,[3],"flushing, nausea, vomiting, and diarrhea"
"PTH: parathyroid hormone, the only anabolic agent currently available",increase of BMD in the spine,"[1]; Neer et al., NEJM 2001",≤ 13%
same,bone tumors,[4],increase in bone tumors
same,common side effects,[3],"nausea, headaches, and leg cramps"
"NCCCC(O)(P(=O)(O)O)P(=O)(O)O [alendronate, 4-amino-1-hydroxybulylidene bisphophonic acid]",average improvement of patient's BMD,[1]; after three years of treatment,8%
same,patients treated who show an increase in BMD at the lumbar spine,[1]; lumbar spine,≤ 95%
same,common side effects,[3],can irritate the lining of the upper gastrointestinal tract
